Experimental data: patent US12678518B2, “Theranostic probe and its use for targeting and/or labeling the EGFR kinase and/or the cells expressing EGFR or its family members” (Tianjin University, priority 2019, dated 2026)

Experiments:
[1] = system: mock transfected / EGFR-negative HEK293T cells; test: Flowcytometry of PDCy3 labelling of EGFR negative and mock transfected cells (specificity); format: cell-based
Method: (§1) Cell sorting. Following starvation in EX-Cell 293 Serum-Free Medium for 44 hours, transfected cells were treated with gefitinib, PDCy3, or EGF for 4 hours at 37° C. Then, the cells were washed twice with 500 μl/well ice-cold PBS, and were re-suspended in 400 μl/well PBS. The final cell density was estimated to be 5×10^5˜1×10^6 cells/ml. To detect EGFR expression, 3 μd anti-EGFR 528 antibody (santa cruz biotechnology inc, USA) at 200 μg/ml concentration was added to each well of re-suspended cells. After 30-minute incubation on ice, cells were washed twice with 500 μl/well PBS, and were re-suspended in […]. Then, 0.3 μl FITC-labelled secondary antibody at a concentration of 2 mg/ml was added to each sample. After incubation on ice for 30 minutes, cells were washed three times with PBS, re-suspended in 400 μl/well PBS, and analyzed by flowcytometry using a BD FACS Calibur machine.
To extend the application of PDCy3 probe in a diagnosis-related setting, we optimized the labelling conditions so that the cells with over-expressed EGFR could be more specifically labelled with the probe. We compared the efficiencies in labelling EGFR over-expressed cells versus those non-over-expressed cells under different PDCy3 concentrations (FIG. 3A). […] Under this condition, over 84.9% EGFR positive cells could be labeled by this probe. In comparison, 6.7% EGFR negative cells and 1.4% mock transfected cells were labelled by PDCy3 probe at the same condition. However, when the concentration of PDCy3 was increased to […] or higher, mock transfected cells or transfected, EGFR-negative cells were getting to be labelled non-specifically.
Cell sorting. Following starvation in EX-Cell 293 Serum-Free Medium for 44 hours, transfected cells were treated with gefitinib, PDCy3, or EGF for 4 hours at 37° C. Then, the cells were washed twice with 500 μL/well ice-cold PBS, and were re-suspended in 400 μL/well PBS. The final cell density was estimated to be 5×10^5˜1×10^6 cells/mL. To detect EGFR expression, 3 μL anti-EGFR 528 antibody (Santa Cruz Biotechnology Inc, USA) at 200 μg/mL concentration was added to each well of re-suspended cells. After 30-minute incubation on ice, cells were washed twice with 500 μL/well PBS, and were re-suspended in 400 μL PBS. Then, 0.3 μL FITC-labelled secondary antibody at a concentration of 2 mg/mL was added to each sample. After incubation on ice for 30 minutes, cells were washed three times with PBS, re-suspended in 400 μL/well PBS, and analyzed by floweytometry using a BD FACS Calibur machine.
To characterize the specificity of PDCy3, we compared the efficiencies in labelling EGFR over-expressed cells versus those non-over-expressed cells under different PDCy3 concentrations (FIG. 3A). […]

[2] = biological target: T1, EGFR V924R (Homo sapiens, UniProt P00533, V948R); test: Flowcytometry of PDCy3 binding to cells expressing EGFR V924R mutant; format: cell-based; conditions: 1 μM PDCy3
T1 construct: plasmids encoding human EGFR (1-988) and split YFP fragments; expressed in transfected cells; host or cells: HEK 293T
T1 sequence (P00533 25-1012 V948R): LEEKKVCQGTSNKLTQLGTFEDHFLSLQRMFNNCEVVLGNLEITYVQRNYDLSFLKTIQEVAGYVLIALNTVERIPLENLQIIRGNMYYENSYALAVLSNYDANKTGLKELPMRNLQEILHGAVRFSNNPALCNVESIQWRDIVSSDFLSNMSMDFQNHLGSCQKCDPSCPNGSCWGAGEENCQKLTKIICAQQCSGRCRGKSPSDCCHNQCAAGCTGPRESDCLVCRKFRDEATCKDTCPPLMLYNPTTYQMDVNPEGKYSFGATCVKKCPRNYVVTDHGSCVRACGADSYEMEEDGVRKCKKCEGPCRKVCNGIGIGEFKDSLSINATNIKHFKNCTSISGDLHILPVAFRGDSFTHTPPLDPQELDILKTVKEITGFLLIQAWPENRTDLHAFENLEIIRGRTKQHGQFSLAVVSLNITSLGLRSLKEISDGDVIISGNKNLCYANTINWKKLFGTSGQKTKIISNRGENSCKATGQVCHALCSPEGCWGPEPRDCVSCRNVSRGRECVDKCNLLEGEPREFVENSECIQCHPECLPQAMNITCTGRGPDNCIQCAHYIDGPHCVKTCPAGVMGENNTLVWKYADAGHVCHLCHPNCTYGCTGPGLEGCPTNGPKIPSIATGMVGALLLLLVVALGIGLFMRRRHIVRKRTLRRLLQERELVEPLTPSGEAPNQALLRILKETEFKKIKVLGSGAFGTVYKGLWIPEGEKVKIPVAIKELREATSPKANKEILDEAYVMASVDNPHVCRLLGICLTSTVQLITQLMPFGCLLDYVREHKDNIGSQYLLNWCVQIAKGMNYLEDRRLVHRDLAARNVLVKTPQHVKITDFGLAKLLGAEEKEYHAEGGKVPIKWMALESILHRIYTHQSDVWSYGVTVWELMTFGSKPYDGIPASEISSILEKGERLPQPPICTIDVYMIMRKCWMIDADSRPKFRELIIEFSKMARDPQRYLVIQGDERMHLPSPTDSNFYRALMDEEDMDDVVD
Method: as §1
Cell sorting. Following starvation in EX-Cell 293 Serum-Free Medium for 44 hours, transfected cells were treated with gefitinib, PDCy3, or EGF for 4 hours at 37° C. Then, the cells were washed twice with 500 μL/well ice-cold PBS, and were re-suspended in 400 μL/well PBS. The final cell density was estimated to be 5×10^5˜1×10^6 cells/mL. […] After incubation on ice for 30 minutes, cells were washed three times with PBS, re-suspended in 400 μL/well PBS, and analyzed by floweytometry using a BD FACS Calibur machine.

enhancement of PDCy3 binding (fraction of PDCy3-bound cells) by V924R mutation [2]: 8%
SMILES: CN1/C(=C/C=C/C2=[N+](CCCCCC(=O)NCCC/C=C/C(=O)Nc3ccc4ncnc(Nc5cccc(Br)c5)c4c3)c3ccc(S(=O)(=O)O)cc3C2(C)C)C(C)(C)c2cc(S(=O)(=O)[O-])ccc21 [PDCy3, 1-(6-((E)-6-(4-(3-bromophenylamino)quinazolin-6-ylamino)-6-oxohex-4-enylamino)-6-oxohexyl)-3,3-dimethyl-2-((1E,3E)-3-(1,3,3-trimethyl-5-sulfonatoindolin-2-ylidene)prop-1-enyl)-3H-indolium-5-sulfonate]
mock transfected cells labelled by PDCy3 ([1]; 1 μM PDCy3): 1.4%
EGFR negative cells labelled by PDCy3 ([1]; 1 μM PDCy3, transfected, EGFR-negative cells): 6.7%
PDCy3 concentration at which mock transfected or EGFR-negative cells are labelled non-specifically ([1]; as printed in Example 2): ≥ 5 µM
PDCy3 concentration at which mock transfected or EGFR-negative cells are labelled non-specifically ([1]; as printed in Example 3): ≥ 5 µM
